Where a name gives a salt, the structure may show the parent alone.
What was measured:
L6-myotubes [1] = experiment: Glucose uptake (3H-2-deoxyglucose) in differentiated L6-myotubes; format: cell-based; settings: compound at 10 µM (1×10^−5 M) vs isoproterenol at 10 µM, read-out: Biological example 1: glucose uptake, activity compared to that of isoproterenol
Description: L6-myoblasts were grown in Dulbecco's Modified Eagle's Medium (DMEM) containing 1 g/L glucose supplemented with 10% fetal bovine serum, 2 mM L-Glutamine, 50 U/ml penicillin, 50 μg/mL streptomycin and 10 mM HEPES. Cells were plated at 1×10^5 cells per mL in 24-well plates. After reaching 90% confluence the cells were grown in medium containing 2% FBS for 7 days where upon cells differentiated into myotubes. Differentiated L6-myotubes were serum-starved overnight in medium containing 0.5% fatty-acid free BSA and stimulated with an agonist, with a final concentration of 1×10^−5 M. After 1 h 40 min the cells were washed with warm glucose free medium or PBS twice and another portion of agonist was added to the glucose free medium. After 20 min the cells were exposed to 50 nM ^3H-2-deoxyglucose for another 10 min before washed in ice cold glucose free medium or PBS three times and lysed in 400 μL/well 0.2 M NaOH for 1 h at 60° C. The cell lysate was mixed with 4 mL scintillation buffer (Emulsifier Safe, Perkin Elmer) and the radioactivity was detected in a β-counter (Tri-Carb 4810TR, Perkin Elmer). The activity for each compound is compared to that of isoproterenol.

L6-myotubes [2] = experiment: Measurement of intracellular cAMP levels in differentiated L6 cells; format: cell-based; settings: Rattus norvegicus, L6, 0.25 h, compound at 10 µM (1×10^−5 M), 15 min, vs isoproterenol at 10 µM, read-out: Biological example 2: intracellular cAMP levels, activity compared to that of isoproterenol
Description: L6-myoblasts were grown in Dulbecco's Modified Eagle's Medium (DMEM) containing 1 g/L glucose supplemented with 10% fetal bovine serum, 2 mM L-Glutamine, 50 U/ml penicillin, 50 μg/mL streptomycin and 10 mM HEPES. Cells were plated at 1×10^5 cells per mL in 24-well plates. After reaching 90% confluence the cells were grown in medium containing 2% FBS for 7 days where upon cells differentiated into myotubes. Differentiated cells were serum-starved overnight and stimulated with an agonist, final concentration 1×10^−5 M, for 15 min in stimulation buffer (HBSS supplemented with 1% BSA, 5 mM HEPES and 1 mM IBMX, pH 7.4). The medium was aspirated and 100 μL of 95% EtOH was added to each well of the 24-well plate and cells were kept at −20° C. overnight. The EtOH was allowed to evaporate and 500 μL of lysis buffer (1% BSA, 5 mM HEPES and 0.3% Tween-20, pH 7.4) was added to each well. The plate was kept at −80° C. for 30 min and then at −20° C. until the day of detection when the samples were thawed. Intracellular cAMP levels were detected using an alpha screen CAMP kit (6760635D from Perkin Elmer). The activity for each compound is compared to that of isoproterenol.

| Compound | Emax at 10 µM (L6-myotubes [1]) | Emax at 10 µM (L6-myotubes [2]) |
| --- | --- | --- |
| O[C@H](c1cncc(F)c1)C12CCC(C/C=C/c3ccccc3)(CC1)N2 [Example 29, (R)-(4-Cinnamyl-7-azabicyclo[2.2.1]heptan-1-yl)(5-fluoropyridin-3-yl)-methanol] | > 75% | < 25% |
| O[C@@H](c1cncc(F)c1)C12CCC(C/C=C/c3ccccc3)(CC1)N2 [Example 30, (S)-(4-Cinnamyl-7-azabicyclo[2.2.1]heptan-1-yl)(5-fluoropyridin-3-yl)-methanol] | 25 to 50% | < 25% |
| O[C@H](c1cccc(F)c1)C12CCC(C/C=C/c3ccccc3)(CC1)N2 [Example 31, (R)-(4-Cinnamyl-7-azabicyclo[2.2.1]heptan-1-yl)(3-fluorophenyl)methanol] | > 75% | < 25% |
| O[C@@H](c1cccc(F)c1)C12CCC(C/C=C/c3ccccc3)(CC1)N2 [Example 32, (S)-(4-Cinnamyl-7-azabicyclo[2.2.1]heptan-1-yl)(3-fluorophenyl)methanol] | < 25% | < 25% |
| O[C@H](c1cncc(F)c1)C12CCC(CCCc3ccccc3)(CC1)N2 [Example 33, (R)-(5-Fluoropyridin-3-yl)(4-(3-phenylpropyl)-7-azabicyclo[2.2.1]heptan-1-yl)methanol hydrochloride] | 50 to 75% | 25 to 50% |
| O[C@@H](c1cncc(F)c1)C12CCC(CCCc3ccccc3)(CC1)N2 [Example 34, (S)-(5-Fluoropyridin-3-yl)(4-(3-phenylpropyl)-7-azabicyclo[2.2.1]heptan-1-yl)methanol hydrochloride] | 50 to 75% | < 25% |
| O[C@H](c1cccc(F)c1)C12CCC(CCCc3ccccc3)(CC1)N2 [Example 35, (R)-(3-Fluorophenyl)(4-(3-phenylpropyl)-7-azabicyclo[2.2.1]heptan-1-yl)methanol hydrochloride] | > 75% | 25 to 50% |
| O[C@@H](c1cccc(F)c1)C12CCC(CCCc3ccccc3)(CC1)N2 [Example 36, (S)-(3-Fluorophenyl)(4-(3-phenylpropyl)-7-azabicyclo[2.2.1]heptan-1-yl)methanol hydrochloride] | 25 to 50% | < 25% |
| O[C@H](c1cccc(F)c1)C12CCC(CCc3ccc(Cl)cc3)(CC1)N2 [Example 37, (R)-4-(4-Chlorophenethyl)-7-azabicyclo[2.2.1]heptan-1-yl)-(3-fluorophenyl)methanol acetate] | < 25% | < 25% |
| O[C@@H](c1cccc(F)c1)C12CCC(CCc3ccc(Cl)cc3)(CC1)N2 [Example 38, (S)-(4-(4-Chlorophenethyl)-7-azabicyclo[2.2.1]heptan-1-yl)(3-fluoro-phenyl)methanol acetate] | < 25% | < 25% |
| COc1ccc(CCC23CCC([C@H](O)c4cccc(F)c4)(CC2)N3)cc1 [Example 39, (R)-(3-Fluorophenyl)(4-(4-methoxyphenethyl)-7-azabicyclo[2.2.1]heptan-1-yl)methanol acetate] | 50 to 75% | < 25% |
| COc1ccc(CCC23CCC([C@@H](O)c4cccc(F)c4)(CC2)N3)cc1 [Example 40, (S)-(3-Fluorophenyl)(4-(4-methoxyphenethyl)-7-azabicyclo[2.2.1]heptan-1-yl)methanol acetate] | < 25% | < 25% |
| COc1ccc(CCC23CCC([C@H](O)c4cncc(F)c4)(CC2)N3)cc1 [Example 41, (R)-(5-Fluoropyridin-3-yl)(4-(4-methoxyphenethyl)-7-azabicyclo-[2.2.1]heptan-1-yl)methanol dihydrochloride] | 50 to 75% | 25 to 50% |
| COc1ccc(CCC23CCC([C@@H](O)c4cncc(F)c4)(CC2)N3)cc1 [Example 42, (S)-(5-Fluoropyridin-3-yl)(4-(4-methoxyphenethyl)-7-azabicyclo-[2.2.1]heptan-1-yl)methanol dihydrochloride] | < 25% | < 25% |
